In ChEMBL document CHEMBL1201862, “PubChem BioAssay data set” (2004):
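Results reflect a 48-hour exposure of cells in 96-well plates to compound at five concentrations. GI50 marks 50% less growth.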 Calls of active or inactive are those of the source. No stated cut-off is given here; in the data, active = GI50 up to about 1.1 µM and inactive = higher.

Experiments:
Test in all cases: NCI tumour cell line growth inhibition, 48 h
A498 = test system: A498
HCC 2998 = test system: HCC 2998
HOP-62 = test system: HOP-62
HOP-92 = test system: HOP-92
IGROV-1 = test system: IGROV-1
KM12 = test system: KM12
OVCAR-3 = test system: OVCAR-3
OVCAR-4 = test system: OVCAR-4
RXF 393 = test system: RXF 393
SF-268 = test system: SF-268
SF-295 = test system: SF-295
SK-MEL-28 = test system: SK-MEL-28
SK-MEL-5 = test system: SK-MEL-5
TK-10 = test system: TK-10
UACC-62 = test system: UACC-62
786-0 = test system: 786-0
HL-60 = test system: HL-60
LOX IMVI = test system: LOX IMVI
NCI-H226 = test system: NCI-H226
SR = test system: SR

Compound | GI50 (A498) | GI50 (HCC 2998) | GI50 (HOP-62) | GI50 (HOP-92) | GI50 (IGROV-1) | GI50 (KM12) | GI50 (OVCAR-3) | GI50 (OVCAR-4) | GI50 (RXF 393) | GI50 (SF-268) | GI50 (SF-295) | GI50 (SK-MEL-28) | GI50 (SK-MEL-5) | GI50 (TK-10) | GI50 (UACC-62) | GI50 (786-0) | GI50 (HL-60) | GI50 (LOX IMVI) | GI50 (NCI-H226) | GI50 (SR)
CCOP(=Nc1ccc(N(C)C)cc1)(OCC)OCC | > 100 µM (inactive) | > 100 µM (inactive) | > 100 µM (inactive) | > 100 µM (inactive) | > 100 µM (inactive) | > 100 µM (inactive) | > 100 µM (inactive) | > 100 µM (inactive) | > 100 µM (inactive) | > 100 µM (inactive) | > 100 µM (inactive) | > 100 µM (inactive) | > 100 µM (inactive) | > 100 µM (inactive) | > 100 µM (inactive) | – | – | – | – | –
NC(=O)c1csc(C2O[C@@H](COP(=O)(O)OP(=O)(O)OC[C@H]3OC(n4cnc5c(N)ncnc54)[C@H](O)[C@@H]3O)[C@H](O)[C@@H]2O)n1 (stereo partly specified) | > 100 µM (inactive) | > 100 µM (inactive) | > 100 µM (inactive) | > 100 µM (inactive) | > 100 µM (inactive) | 88.1 µM (inactive) | > 100 µM (inactive) | 73.3 µM (inactive) | – | 64 µM (inactive) | 30 µM (inactive) | 30 µM (inactive) | > 100 µM (inactive) | > 100 µM (inactive) | 72.1 µM (inactive) | 57.1 µM (inactive) | 67.3 µM (inactive) | 54.5 µM (inactive) | > 100 µM (inactive) | –
CCOC(=O)c1cc2c([N+](=O)[O-])c(NC(C)=O)ccc2s1 | 29.9 µM (inactive) | > 100 µM (inactive) | 90.2 µM (inactive) | 44.8 µM (inactive) | 72.9 µM (inactive) | 74.8 µM (inactive) | 38.4 µM (inactive) | 68.4 µM (inactive) | 20.2 µM (inactive) | 50.7 µM (inactive) | 69.3 µM (inactive) | > 100 µM (inactive) | 39.4 µM (inactive) | > 100 µM (inactive) | 66.7 µM (inactive) | 62.8 µM (inactive) | 31.7 µM (inactive) | 60.4 µM (inactive) | 13.3 µM (inactive) | –
Cc1cccc(/C=C2\CCCc3ccccc3C2=O)c1 | – | – | 28.8 µM (inactive) | 15 µM (inactive) | 21.6 µM (inactive) | 13.4 µM (inactive) | 26.3 µM (inactive) | 19.1 µM (inactive) | – | 15.2 µM (inactive) | 19.5 µM (inactive) | 23.8 µM (inactive) | – | 27.4 µM (inactive) | 14 µM (inactive) | 32.1 µM (inactive) | 12.1 µM (inactive) | 19.3 µM (inactive) | 20.6 µM (inactive) | 15 µM (inactive)
COc1c(Cl)cc(Cl)cc1S(=O)O | > 100 µM (inactive) | > 100 µM (inactive) | > 100 µM (inactive) | – | – | > 100 µM (inactive) | > 100 µM (inactive) | > 100 µM (inactive) | > 100 µM (inactive) | > 100 µM (inactive) | – | > 100 µM (inactive) | – | > 100 µM (inactive) | > 100 µM (inactive) | – | > 100 µM (inactive) | > 100 µM (inactive) | – | > 100 µM (inactive)
COc1ccc(C2=NN(c3nsc4ccccc34)C(=O)CC2)cc1 | – | > 100 µM (inactive) | > 100 µM (inactive) | 92 µM (inactive) | 70.1 µM (inactive) | > 100 µM (inactive) | 32.3 µM (inactive) | > 100 µM (inactive) | > 100 µM (inactive) | > 100 µM (inactive) | – | > 100 µM (inactive) | 61.4 µM (inactive) | > 100 µM (inactive) | > 100 µM (inactive) | – | 39.4 µM (inactive) | 89.1 µM (inactive) | – | 49 µM (inactive)
CC(C)(C)[Si](OC1CCOC1=O)(c1ccccc1)c1ccccc1 (stereo unspecified) | 25.3 µM (inactive) | 18.9 µM (inactive) | – | > 10 µM (inactive) | 15.7 µM (inactive) | > 10 µM (inactive) | 13.1 µM (inactive) | – | – | 23 µM (inactive) | 16 µM (inactive) | 22.3 µM (inactive) | 13.4 µM (inactive) | 22.5 µM (inactive) | 13.9 µM (inactive) | – | 14.4 µM (inactive) | 15.5 µM (inactive) | – | > 10 µM (inactive)
CC1CC(NC2CCCCC2)=Nc2ccccc2N1Cc1ccccc1 (stereo unspecified) | 2.05 µM (inactive) | 2.31 µM (inactive) | 7.03 µM (inactive) | – | 1.91 µM (inactive) | 4.75 µM (inactive) | 6.92 µM (inactive) | 5.78 µM (inactive) | 2.36 µM (inactive) | 4.06 µM (inactive) | 6.03 µM (inactive) | 4.38 µM (inactive) | 2.43 µM (inactive) | 12.3 µM (inactive) | 1.79 µM (inactive) | 7.71 µM (inactive) | 4.51 µM (inactive) | 2.11 µM (inactive) | 12.7 µM (inactive) | 2.64 µM (inactive)
C=C1CC(OC)(C(O)C(=O)N[C@H]2OCO[C@H]3C2O[C@H](C[C@@H](COC)OC)C(C)(C)C3OC)O[C@H](C)[C@@H]1C (stereo partly specified) | < 0.00482 µM (active) | < 0.00482 µM (active) | < 0.00482 µM (active) | – | < 0.00482 µM (active) | < 0.00482 µM (active) | < 0.00482 µM (active) | < 0.00482 µM (active) | < 0.00482 µM (active) | < 0.00482 µM (active) | < 0.00482 µM (active) | < 0.00482 µM (active) | < 0.00482 µM (active) | – | < 0.00482 µM (active) | – | < 0.00482 µM (active) | < 0.00482 µM (active) | < 0.00482 µM (active) | –
O=C1/C(=C/c2ccccc2)NC(=S)N1CN1CCOCC1 | 82.2 µM (inactive) | – | > 100 µM (inactive) | > 100 µM (inactive) | > 100 µM (inactive) | > 100 µM (inactive) | > 100 µM (inactive) | 72.8 µM (inactive) | – | > 100 µM (inactive) | > 100 µM (inactive) | > 100 µM (inactive) | > 100 µM (inactive) | > 100 µM (inactive) | > 100 µM (inactive) | > 100 µM (inactive) | – | > 100 µM (inactive) | > 100 µM (inactive) | > 100 µM (inactive)
Cc1nc2cccc(F)c2c(=O)n1C1CCCCNC1=O (stereo unspecified) | – | > 10 µM (inactive) | > 10 µM (inactive) | > 10 µM (inactive) | > 10 µM (inactive) | > 10 µM (inactive) | > 10 µM (inactive) | > 10 µM (inactive) | > 10 µM (inactive) | > 10 µM (inactive) | > 10 µM (inactive) | > 10 µM (inactive) | > 10 µM (inactive) | > 10 µM (inactive) | > 10 µM (inactive) | > 10 µM (inactive) | > 10 µM (inactive) | > 10 µM (inactive) | > 10 µM (inactive) | > 10 µM (inactive)
COc1ccc(C2CC(c3sc(Nc4ccc(C)cc4)nc3C)=NN2)cc1 (stereo unspecified) | 15.4 µM (inactive) | 15.8 µM (inactive) | 20.7 µM (inactive) | 14.2 µM (inactive) | > 40.8 µM (inactive) | 15.2 µM (inactive) | 15.8 µM (inactive) | 13.3 µM (inactive) | 13.2 µM (inactive) | 15.8 µM (inactive) | 15 µM (inactive) | 16.8 µM (inactive) | 16 µM (inactive) | – | 40 µM (inactive) | – | 7.64 µM (inactive) | 18.2 µM (inactive) | 16.6 µM (inactive) | –
NC(=S)N/N=C1\CC(c2ccccc2)Nc2ccccc21 (stereo unspecified) | 18.5 µM (inactive) | – | – | 16.4 µM (inactive) | 42.7 µM (inactive) | – | 40.3 µM (inactive) | – | – | 40.1 µM (inactive) | 60.3 µM (inactive) | 40.1 µM (inactive) | 19.5 µM (inactive) | 71.8 µM (inactive) | 34.3 µM (inactive) | – | 11 µM (inactive) | 34.2 µM (inactive) | 39 µM (inactive) | –
CON(C)C(=O)C(Cc1ccccc1)NC(=O)OCc1ccccc1 (stereo unspecified) | > 100 µM (inactive) | > 100 µM (inactive) | > 100 µM (inactive) | > 100 µM (inactive) | > 100 µM (inactive) | > 100 µM (inactive) | > 100 µM (inactive) | > 100 µM (inactive) | > 100 µM (inactive) | > 100 µM (inactive) | > 100 µM (inactive) | > 100 µM (inactive) | 97.7 µM (inactive) | > 100 µM (inactive) | > 100 µM (inactive) | – | > 100 µM (inactive) | – | – | > 100 µM (inactive)
CC(C)CC(NC(=O)OCc1ccccc1)C(=O)NCCCCC(N)C(=O)NC(CCCCNC(=O)C(CC(C)C)NC(=O)OCc1ccccc1)C(=O)NC(CCCCNC(=O)C(CC(C)C)NC(=O)OCc1ccccc1)C(=O)NC(CCCCNC(=O)C(CC(C)C)NC(=O)OCc1ccccc1)C(=O)NC(CCCCNC(=O)C(CC(C)C)NC(=O)OCc1ccccc1)C(=O)NC(CCCCNC(=O)C(CC(C)C)NC(=O)OCc1ccccc1)C(=O)O (stereo unspecified) | > 100 µM (inactive) | > 100 µM (inactive) | > 100 µM (inactive) | – | > 100 µM (inactive) | – | > 100 µM (inactive) | > 100 µM (inactive) | – | – | – | – | > 100 µM (inactive) | > 100 µM (inactive) | > 100 µM (inactive) | > 100 µM (inactive) | > 100 µM (inactive) | 88.5 µM (inactive) | > 100 µM (inactive) | > 100 µM (inactive)
O=NN(CCCl)C(=O)N[C@H]1CC[C@H](C(=O)O)CC1 | > 100 µM (inactive) | > 100 µM (inactive) | 95.5 µM (inactive) | > 100 µM (inactive) | > 100 µM (inactive) | > 100 µM (inactive) | > 100 µM (inactive) | > 100 µM (inactive) | > 100 µM (inactive) | 29.7 µM (inactive) | 34.8 µM (inactive) | > 100 µM (inactive) | > 31.6 µM (inactive) | – | 20.2 µM (inactive) | – | – | > 72.6 µM (inactive) | > 100 µM (inactive) | –
